Where two headings read alike, the source gives them in different places.
Assays:
[1] = molecular target: T1, 5HT2C receptors (Homo sapiens, UniProt P28335); assay: Human 5-HT2C functional assay in 1321N1 cells (intracellular calcium, FLIPR); assay type: cell-based; set-up: expressed in transfected cells; host or cells: 1321N1 cells; conditions: for EC50: 1321N1 cells stably transfected, maximum calcium response, read-out: EC50 (μM), 5-HT2c Agonist Activity; for Emax: 1321N1 cells, percentage relative to the effect of serotonin, read-out: Emax (%), 5-HT2c Agonist Activity
T1 sequence (P28335 33-458): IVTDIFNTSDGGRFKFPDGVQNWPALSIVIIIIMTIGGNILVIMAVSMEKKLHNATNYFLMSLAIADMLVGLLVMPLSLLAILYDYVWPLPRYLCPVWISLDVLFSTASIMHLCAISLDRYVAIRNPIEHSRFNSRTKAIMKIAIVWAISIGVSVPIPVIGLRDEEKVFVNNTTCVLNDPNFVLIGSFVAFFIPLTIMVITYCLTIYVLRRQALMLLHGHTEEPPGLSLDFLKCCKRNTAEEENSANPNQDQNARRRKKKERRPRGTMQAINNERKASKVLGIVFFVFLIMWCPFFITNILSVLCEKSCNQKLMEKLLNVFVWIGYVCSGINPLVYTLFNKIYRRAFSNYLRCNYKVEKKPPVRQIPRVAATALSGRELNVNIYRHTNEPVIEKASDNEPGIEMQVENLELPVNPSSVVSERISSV
Procedure: (ii) Human 5-HT2C Functional Assay in 1321N1 Cells
Functional activity was determined by testing the effect of the compounds on intracellular calcium levels in 1321N1 cells stably transfected with the human 5-HT2C receptor. Cells were seeded into 96-well plates at 50,000 cells/well and grown overnight in tissue culture medium (DMEM with Glutamax I (Invitrogen), containing 10% dFCS, 50 μg/mL Gentamicin, 400 μg/mL Geneticin) at 37° C. and 7% CO2. Growth medium was replaced by medium without dFCS for overnight incubation. Cells were loaded with a fluorescent calcium-sensitive dye in the presence of 1% probenicid according to the manufacturer's protocol (Fluo4 AM, Molecular Devices). Serial compound dilutions (final concentrations 10^−10 to 10^−5 M) were added to the cells either alone or in the presence of serotonin (10^−9 M) and the maximum calcium response was determined using a FLIPR instrument (Molecular Devices). Concentration-response curves were fitted using a four-parameter logistic equation (GraphPad Prism). The concentration at which the compound exerts half its maximal effect is named the ‘effective concentration 50’ or ‘EC50’ and is listed in Table 2.
Emax is the maximum functional response or efficacy expressed as a percentage relative to the effect of serotonin.

[2] = molecular target: T2, human serotonin 5-HT2c receptor (Homo sapiens, UniProt P28335); assay: Human 5-HT2C receptor radioligand binding assay (agonist site, [125I](±)DOI); conditions: membranes of transfected CHO cells, 0.2 nM [125I](±)DOI, 15 minutes at 37° C.
T2 construct: expressed in transfected cells; host or cells: CHO cells (membrane homogenate)
T2 sequence (P28335 33-458): T1 sequence (P28335 33-458)
Procedure: To determine the effectiveness of compounds having a formula (I), these compounds can be evaluated in a radioligand binding assay for the agonist site of the human serotonin 5-HT2c receptor or in vitro models of cellular function.
(i) Human 5-HT2C Receptor Radioligand Binding Assay
Affinity of compounds for the agonist site of the 5-HT2c receptor in transfected CHO cells was determined in a radioligand binding assay essentially as described by Bryant, H. U., et al., Life Sciences (1996) 59(15), 1259-1268.

[3] = molecular target: T3, 5HT2B receptors (Homo sapiens, UniProt P41595); assay: Human 5-HT2B functional assay in CHO-K1 cells (calcium flux, FLIPR); assay type: cell-based; conditions: for Emax: CHO-K1, read-out: Emax (%), 5-HT2B Agonist Activity
T3 construct: expressed in transfected cells; host or cells: CHO-K1 cells
T3 sequence (P41595 whole entry): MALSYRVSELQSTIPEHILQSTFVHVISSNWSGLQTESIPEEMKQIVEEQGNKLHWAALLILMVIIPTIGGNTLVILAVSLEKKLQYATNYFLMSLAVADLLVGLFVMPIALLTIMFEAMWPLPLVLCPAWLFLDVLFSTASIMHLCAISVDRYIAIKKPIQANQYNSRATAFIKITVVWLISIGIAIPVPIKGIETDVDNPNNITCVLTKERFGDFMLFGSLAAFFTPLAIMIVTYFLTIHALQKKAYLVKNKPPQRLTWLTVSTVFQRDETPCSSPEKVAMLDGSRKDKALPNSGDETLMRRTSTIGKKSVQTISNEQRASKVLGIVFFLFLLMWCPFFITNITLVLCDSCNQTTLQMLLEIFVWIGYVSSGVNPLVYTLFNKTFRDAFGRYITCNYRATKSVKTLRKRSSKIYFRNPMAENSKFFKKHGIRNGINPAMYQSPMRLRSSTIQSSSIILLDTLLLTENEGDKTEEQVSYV
How it was run: (§1)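 EC50 came from a 4-parameter logistic fit, with Emax expressed relative to serotonin, of intracellular Ca2+ rises read on FLIPR at 480/530 nm, 25° C, over 3 min. Compounds ran from 10 μM in six 1:10 steps (0.2% DMSO) on serum-starved CHO-K1 transfectants pre-loaded 60 min with Ca4 dye and probenecid.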

[4] = molecular target: T1, 5HT2C receptors; assay: Human 5-HT2C functional assay in CHO-K1 cells (calcium flux, FLIPR); assay type: cell-based; set-up: expressed in transfected cells; host or cells: CHO-K1 cells
How it was run: as §1

[5] = CHO-K1, read-out: Emax (%), 5-HT2c Agonist Activity, CHO-K1 cells, percentage relative to the effect of serotonin
[6] = CHO-K1 cells over-expressing 5HT2B, calcium flux, read-out: EC50 (μM), 5-HT2B Agonist Activity
[7] = CHO-K1 cells over-expressing 5HT2C, calcium flux, read-out: EC50 (μM), 5-HT2c Agonist Activity
[8] = CHO-K1, read-out: Emax (%), 5-HT2c Agonist Activity

Ki [2]	SMILES	EC50 [3]	Emax [3]	EC50 [4]	Emax [4, 5]	also measured
0.074 µM	O=C1CC2CNCCN2c2cc(-c3ccccc3)ccc2N1 (stereo not drawn) [Example 5, 10-phenyl-1,2,3,4,4a,5-hexahydropyrazino[1,2-a][1,5]benzodiazepin-6(7H)-one]	–	–	–	–	EC50 [1]: 0.0849 µM; Emax [1]: 86%
0.0035 µM	O=C1CC2CNCCN2c2cc(/C=C/c3ccccc3)ccc2N1 (stereo not drawn) [Example 6, 10-[(E)-2-phenylvinyl]-1,2,3,4,4a,5-hexahydropyrazino[1,2-a][1,5]benzodiazepin-6(7H)-one]	–	–	–	–	EC50 [1]: 0.0298 µM; Emax [1]: 89.5%
0.14 µM	O=C1CC2CNCCN2c2cc(-c3ccccc3Cl)ccc2N1 (stereo not drawn) [Example 8, 10-(2-chlorophenyl)-1,2,3,4,4a,5-hexahydropyrazino[1,2-a][1,5]benzodiazepin-6(7H)-one]	–	–	–	–	–
0.0032 µM	O=C1CC2CNCCN2c2cc(/C=C/c3cccc(F)c3)ccc2N1 (stereo not drawn) [Example 9, 10-[(E)-2-(3-fluorophenyl)vinyl]-1,2,3,4,4a,5-hexahydropyrazino[1,2-a][1,5]benzodiazepin-6(7H)-one]	–	–	–	–	–
0.17 µM	O=C1CC2CNCCN2c2ccc(-c3ccc(Cl)cc3)cc2N1 (stereo not drawn) [Example 14, 9-(4-chlorophenyl)-1,2,3,4,4a,5-hexahydropyrazino[1,2-a][1,5]-benzodiazepin-6(7H)-one]	–	–	–	–	–
–	c1ccc2c(c1)OCC[C@@H]1CNCCN21 [Example 255, (4aR)-2,3,4,4a,5,6-hexahydro-1H-pyrazino[2,1-d][1,5]benzoxazepine]	0.09 µM	70%	0.001 µM	95%	–
–	Fc1ccc2c(c1)OCC[C@@H]1CNCCN21 [Example 256, (4aR)-9-fluoro-2,3,4,4a,5,6-hexahydro-1H-pyrazino[2,1-d][1,5]benzoxazepine]	0.06 µM	80%	0.001 µM	90%	–
–	Cc1ccc2c(c1)N1CCNC[C@H]1CCO2 [Example 257, (4aR)-10-methyl-2,3,4,4a,5,6-hexahydro-1H-pyrazino[2,1-d][1,5]benzoxazepine]	0.02 µM	60%	0.001 µM	90%	–
–	Fc1ccc2c(c1)N1CCNC[C@H]1CCO2 [Example 258, (4aR)-10-fluoro-2,3,4,4a,5,6-hexahydro-1H-pyrazino[2,1-d][1,5]benzoxazepine]	0.007 µM	80%	0.01 µM	80%	–
–	Cc1ccc2c(c1)OCC[C@@H]1CNCCN21 [Example 259, (4aR)-9-methyl-2,3,4,4a,5,6-hexahydro-1H-pyrazino[2,1-d][1,5]benzoxazepine]	0.1 µM	70%	0.004 µM	100%	–
–	Clc1ccc2c(c1)OCC[C@@H]1CNCCN21 [Example 260, (4aR)-9-chloro-2,3,4,4a,5,6-hexahydro-1H-pyrazino[2,1-d][1,5]benzoxazepine]	0.03 µM	90%	0.0003 µM	100%	–
–	Clc1ccc2c(c1)N1CCNC[C@H]1CCO2 [Example 261, (4aR)-10-chloro-2,3,4,4a,5,6-hexahydro-1H-pyrazino[2,1-d][1,5]benzoxazepine]	0.03 µM	70%	0.0004 µM	90%	–
–	[2H]c1ccc2c(c1)N1CCNC[C@@H]1CCO2 [Example 262, (4aS)-(10-^2H)-2,3,4,4a,5,6-hexahydro-1H-pyrazino[2,1-d][1,5]benzoxazepine]	0.2 µM	15%	0.005 µM	90%	–
–	[2H]c1ccc2c(c1)OCC[C@H]1CNCCN21 [Example 263, (4aS)-(9-^2H)-2,3,4,4a,5,6-hexahydro-1H-pyrazino[2,1-d][1,5]benzoxazepine]	0.09 µM	15%	0.003 µM	95%	–
–	CC(C)N1CCN2c3ccccc3OCC[C@H]2C1 [Example 264, (4aS)-3-isopropyl-2,3,4,4a,5,6-hexahydro-1H-pyrazino[2,1-d][1,5]benzoxazepine]	–	–	–	50%	EC50 [3, 6]: > 10 µM; EC50 [4, 7]: 0.9 µM
–	FCC(CF)N1CCN2c3ccccc3OCC[C@H]2C1 [Example 265, (4aS)-3-(1,3-difluoropropan-2-yl)-2,3,4,4a,5,6-hexahydro-1H-pyrazino[2,1-d][1,5]benzoxazepine]	–	–	–	–	EC50 [3, 6]: > 10 µM; Emax [4, 8]: 70%; EC50 [4, 7]: 2 µM
–	C[C@@H]1CN2c3ccccc3OCC[C@H]2CN1 [Example 266, (2R,4aS)-2-methyl-2,3,4,4a,5,6-hexahydro-1H-pyrazino[2,1-d][1,5]benzoxazepine]	0.5 µM	15%	0.1 µM	70%	–
–	[2H]c1cc2c(cc1[2H])N1CCNC[C@@H]1CCO2 [Example 267, (4aS)-(9,10-^2H2)-2,3,4,4a,5,6-hexahydro-1H-pyrazino[2,1-d][1,5]benzoxazepine]	0.2 µM	20%	0.005 µM	90%	–
–	CN1CCN2c3ccccc3OCC[C@@H]2C1 [Example 268, (4aR)-3-methyl-2,3,4,4a,5,6-hexahydro-1H-pyrazino[2,1-d][1,5]benzoxazepine]	0.2 µM	50%	0.01 µM	95%	–
–	FCCN1CCN2c3ccccc3OCC[C@@H]2C1 [Example 269, (4aR)-3-(2-fluoroethyl)-2,3,4,4a,5,6-hexahydro-1H-pyrazino[2,1-d][1,5]benzoxazepine]	–	50%	–	–	EC50 [3, 6]: 0.6 µM; Emax [4, 8]: 90%; EC50 [4, 7]: 0.09 µM
–	Fc1cccc2c1OCC[C@@H]1CNCCN21 [Example 270, (4aR)-8-fluoro-2,3,4,4a,5,6-hexahydro-1H-pyrazino[2,1-d][1,5]benzoxazepine]	0.04 µM	80%	0.0009 µM	90%	–
–	C[C@H]1CN2c3ccccc3OCC[C@H]2CN1 [Example 271, (2S,4aS)-2-methyl-2,3,4,4a,5,6-hexahydro-1H-pyrazino[2,1-d][1,5]benzoxazepine]	> 10 µM	–	0.1 µM	50%	–
–	Fc1cccc2c1N1CCNC[C@@H]1CCO2 [Example 272, (4aS)-11-fluoro-2,3,4,4a,5,6-hexahydro-1H-pyrazino[2,1-d][1,5]benzoxazepine]	0.05 µM	30%	0.005 µM	85%	–

SMILES	Ki [2]	EC50 [3]	Emax [3]	EC50 [4]	Emax [4, 5]	also measured
O=C1CC2CNCCN2c2ccccc2N1 (stereo not drawn) [Example 1, 1,2,3,4,4a,5-hexahydropyrazino[1,2-a][1,5]benzodiazepin-6(7H)-one]	0.086 µM	–	–	–	–	EC50 [1]: 0.0135 µM; Emax [1]: 100%
O=C1CC2CNCCN2c2cc(Cl)ccc2N1 (stereo not drawn) [Example 3, 10-chloro-1,2,3,4,4a,5-hexahydropyrazino[1,2-a][1,5]benzodiazepin-6(7H)-one]	0.012 µM	–	–	–	–	EC50 [1]: 0.0017 µM; Emax [1]: 93%
O=C1CC2CNCCN2c2cc(Br)ccc2N1 (stereo not drawn) [Example 4, 10-bromo-1,2,3,4,4a,5-hexahydropyrazino[1,2-a][1,5]-benzodiazepin-6(7H)-one]	0.0069 µM	–	–	–	–	EC50 [1]: 0.0028 µM; Emax [1]: 92%

Reference: patent US8546377B2 (AbbVie Inc., priority 2009, dated 2013)
